Measured values: US20040229881A1, “Methods of use of antimicrobial compounds against pathogenic mycoplasma bacteria” (SmithKline Beecham Corporation, priority 1999, published 2004)
In brackets after ≈: the same amount, converted by molar mass. Like-named read-outs stand apart in the source and are kept apart here.

How the values were obtained:
Type in all cases: cell-based
[1] = test system: M. fermentans (Mf); assay: MIC by micro-broth dilution, M. fermentans; settings: 19 isolates, SP4 medium
Description: (§1) Organisms used in the analyses included Mycoplasma pneumoniae (MPN), M. hominis (Mh), M. fermentans (Mf), M. genitalium (Mg), M. penetrans (Mp) and Ureaplasma urealyticum (Uu). Minimum Inhibitory Concentrations (MICs) were determined using a micro-broth dilution method. Assays for Ureaplasma urealyticum were performed in 10B media and all other mycoplasma assays were carried out in SP4 medium.

[2] = test system: Mycoplasma pneumoniae (MPN); assay: MIC by micro-broth dilution, Mycoplasma pneumoniae
Description: as §1

[3] = test system: M. genitalium (Mg); assay: MIC by micro-broth dilution, M. genitalium; settings: Mycoplasmoides genitalium, 2 isolates, one line per isolate, SP4 medium, read-out: MICs for Mg
Description: as §1

[4] = test system: Ureaplasma urealyticum (Uu); assay: MIC by micro-broth dilution, Ureaplasma urealyticum
Description: as §1

[5] = test system: M. penetrans (Mp); assay: MIC by micro-broth dilution, M. penetrans; settings: 1 isolate, SP4 medium; for MIC: read-out: MICs for Mp
Description: as §1

[6] = test system: M. hominis (Mh); assay: MIC by micro-broth dilution, M. hominis; settings: 49 isolates, SP4 medium
Description: as §1

[7] = Mycoplasmopsis fermentans, read-out: MIC 90
[8] = MPN, 103 isolates, SP4 medium, read-out: MIC 90
[9] = Uu, 99 isolates, 10B media, read-out: MIC 90
[10] = Metamycoplasma hominis, read-out: MIC 90

| SMILES | MIC90 [1, 7] [µg/mL] | MIC90 [2, 8] [µg/mL] | MIC [3] [µg/mL] | MIC90 [4, 9] [µg/mL] | MIC [5] [µg/mL] | MIC90 [6, 10] [µg/mL] | MIC90 [1] [µg/mL] | MICs for Mp [5] | MIC90 [6] | MIC90 [2] [µg/mL] | MIC90 [4] [µg/mL] |
| --- | --- | --- | --- | --- | --- | --- | --- | --- | --- | --- | --- |
| CO/N=C1\CN(c2nc3c(cc2F)c(=O)c(C(=O)O)cn3C2CC2)CC1CN (racemic) [Gem, (R,S)-7-(3-aminomethyl-4-methoxyiminopyrrolidin-1-yl)-1-cyclopropyl-6-fluoro-4-oxo-1,4-dihydro-1,8-naphthyridine-3-carboxylic acid] | ≤ 0.008 | 0.125 (≈ 0.321 µM) | 0.063 (≈ 0.162 µM) | 0.25 (≈ 0.642 µM) | ≤ 0.008 | ≤ 0.008 |  |  |  |  |  |
| CC[C@H]1OC(=O)[C@H](C)[C@@H](O[C@H]2C[C@@](C)(OC)[C@@H](O)[C@H](C)O2)[C@H](C)[C@@H](O[C@@H]2O[C@H](C)C[C@H](N(C)C)[C@H]2O)[C@](C)(O)C[C@@H](C)CN(C)[C@H](C)[C@@H](O)[C@]1(C)O [Azith, azithromycin] | 2 (≈ 2.67 µM) | ≤ 0.008 | ≤ 0.008 | 4 (≈ 5.34 µM) | ≤ 0.008 |  |  |  |  |  |  |
| CC[C@H]1OC(=O)[C@H](C)[C@@H](O[C@H]2C[C@@](C)(OC)[C@@H](O)[C@H](C)O2)[C@H](C)[C@@H](O[C@@H]2O[C@H](C)C[C@H](N(C)C)[C@H]2O)[C@](C)(OC)C[C@@H](C)C(=O)[C@H](C)[C@@H](O)[C@]1(C)O [Clar, clarithromycin] | 64 (≈ 85.6 µM) | ≤ 0.008 | ≤ 0.008 | 0.063 (≈ 0.0842 µM) | ≤ 0.008 |  |  |  |  |  |  |
| CCC[C@@H]1C[C@@H](C(=O)N[C@@H]([C@H]2O[C@H](SC)[C@H](O)[C@@H](O)[C@H]2O)[C@H](C)Cl)N(C)C1 [Clin, clindamycin] |  |  |  |  |  |  | 0.031 (≈ 0.0729 µM) | ≦0.008 ug/ml | ≦0.008 ug/ml |  |  |
| Cc1c(F)c(N2CCNC(C)C2)cc2c1c(=O)c(C(=O)O)cn2C1CC1 (stereo not shown) [Grep, grepafloxacin] | 0.016 (≈ 0.0445 µM) | 0.125 (≈ 0.348 µM) | 0.125 (≈ 0.348 µM) | 1 (≈ 2.78 µM) | 0.016 (≈ 0.0445 µM) | 0.031 (≈ 0.0863 µM) |  |  |  |  |  |
| C[C@H]1COc2c(N3CCN(C)CC3)c(F)cc3c(=O)c(C(=O)O)cn1c23 [Lev, levofloxacin] | 0.031 (≈ 0.0858 µM) | 0.5 (≈ 1.38 µM) | 0.5 (≈ 1.38 µM) | 1 (≈ 2.77 µM) | 0.031 (≈ 0.0858 µM) | 0.25 (≈ 0.692 µM) |  |  |  |  |  |
| CN(C)[C@@H]1C(O)=C(C(N)=O)C(=O)[C@@]2(O)C(O)=C3C(=O)c4c(O)cccc4[C@@](C)(O)[C@H]3C[C@@H]12 [Tet, tetracycline] | 0.063 (≈ 0.142 µM) |  | 0.063 (≈ 0.142 µM) |  | 0.125 (≈ 0.281 µM) | 32 (≈ 72 µM) |  |  |  | 0.25 (≈ 0.563 µM) | 1 (≈ 2.25 µM) |
| N[C@@H]1[C@H]2CN(c3nc4c(cc3F)c(=O)c(C(=O)O)cn4-c3ccc(F)cc3F)C[C@@H]12 [Trov, trovafloxacin] |  |  |  |  |  |  | 0.016 (≈ 0.0384 µM) | ≦0.008 ug/ml | 0.031 µg/mL (≈ 0.0745 µM) |  |  |
